Measurements published in patent US20130172378A1, “Combination of BRAF and VEGF Inhibitors” (GlaxoSmithKline LLC, priority 2010, published 2013).

How the values were obtained:
Format in all cases: in vivo, CD-1 nude mice
[1] = Body weight of nude mice bearing A375P F11s xenografts during treatment; settings: in g (unit assumed)
Method: (§1) Female CD-1 nude mice of 6-8 weeks in age were used in these studies; all mice were obtained from Charles River Laboratories (Wilmington, Del.). Animals were housed in pathogen free conditions and handled with aseptic technique.
(§2) Mice with similar sized tumors (100-300 mm^3) were identified. The length and width of the tumors were measured by handheld calipers and body weights of the mice were measured using a bench top weighing scale. Tumor volumes were calculated based on the following formula: tumor volume=(Length×Width^2)/2. Mice were block randomized into the required number of dosing groups (n=8 mice/group). The randomization process ensured that the average tumor volume for each dosing group was approximately equal at the beginning of the study and mice with differing tumor volumes were evenly distributed. Mice were placed in groups of eight accordingly and dosed with either vehicle or compound for 36 days either once or twice daily, as summarised in the table below. Mice were weighed and tumors measured twice weekly for the duration of the study using Studylog animal study management software (Studylog Systems, Inc., South San Francisco, Calif., USA).

[2] = tested on: A375P F11s tumor xenografts (human melanoma, BRAF V600E); assay: A375P F11s melanoma tumor xenograft efficacy in nude mice
[3] = tested on: A375P F11s tumor xenografts (human melanoma, BRAF V600E); assay: as above; remark: listed apart in the source
Method: as §1
The A375P F11s cell lines were grown in RPMI growth medium supplemented with 10% fetal bovine serum (FBS), 1% sodium pyruvate and 1% penicillin-streptomycin in a humidified 37° C. chamber with 5% CO2. Cells were expanded to obtain the large numbers of cells required for each injection; cells were grown in log phase, without reaching confluency and passaged regularly.
Detached cells were collected, centrifuged (1500 rpm, 5 min, 4° C.) and rinsed to remove the trypsin solution. Cells were re-suspended in PBS without magnesium or calcium and counted.
Compounds were administered in vehicles as described below.
as §2
Tumor volumes were calculated based on the following formula: tumor volume=(Length×Width^2)/2. Tumor growth curves were created from the mean±standard error of the mean, with n=8 animals per group. The percentage of tumor growth inhibition was calculated on the final day of dosing using the following formula: 1−(tumor volume in drug-treated population/tumor volume in vehicle-treated control population).

[4] = group 3: Compound B 10 mg/kg PO QD, study day 0
[5] = group 3: Compound B 10 mg/kg PO QD, study day 3
[6] = group 3: Compound B 10 mg/kg PO QD, study day 7
[7] = group 3: Compound B 10 mg/kg PO QD, study day 9
[8] = group 3: Compound B 10 mg/kg PO QD, study day 15
[9] = group 3: Compound B 10 mg/kg PO QD, study day 18
[10] = group 3: Compound B 10 mg/kg PO QD, study day 22
[11] = group 3: Compound B 10 mg/kg PO QD, study day 25
[12] = group 3: Compound B 10 mg/kg PO QD, study day 28
[13] = group 3: Compound B 10 mg/kg PO QD, study day 31
[14] = group 4: Compound B 30 mg/kg PO QD, study day 0
[15] = group 4: Compound B 30 mg/kg PO QD, study day 3
[16] = group 4: Compound B 30 mg/kg PO QD, study day 7
[17] = group 4: Compound B 30 mg/kg PO QD, study day 9
[18] = group 4: Compound B 30 mg/kg PO QD, study day 15
[19] = group 4: Compound B 30 mg/kg PO QD, study day 18
[20] = group 4: Compound B 30 mg/kg PO QD, study day 22
[21] = group 4: Compound B 30 mg/kg PO QD, study day 25
[22] = group 4: Compound B 30 mg/kg PO QD, study day 28
[23] = group 4: Compound B 30 mg/kg PO QD, study day 31
[24] = group 4: Compound B 30 mg/kg PO QD, study day 35
[25] = group 4: Compound B 30 mg/kg PO QD, study day 37

SMILES: Cc1ccc(Nc2nccc(N(C)c3ccc4c(C)n(C)nc4c3)n2)cc1S(N)(=O)=O [Compound A, 5-[[4-[(2,3-dimethyl-2H-indazol-6-yl)methylamino]-2-pyrimidinyl]amino]-2-methylbenzenesulfonamide]
- Mean body weight of nude mice ([1]; group 2: Compound A 100 mg/kg PO BID, study day 0): 24.98
- Mean body weight of nude mice ([1]; group 2: Compound A 100 mg/kg PO BID, study day 3): 25.13
- Mean body weight of nude mice ([1]; group 2: Compound A 100 mg/kg PO BID, study day 7): 25.63
- Mean body weight of nude mice ([1]; group 2: Compound A 100 mg/kg PO BID, study day 15): 24.83
- Mean body weight of nude mice ([1]; group 2: Compound A 100 mg/kg PO BID, study day 18): 25.35
- Mean body weight of nude mice ([1]; group 2: Compound A 100 mg/kg PO BID, study day 22): 24.71
- Mean body weight of nude mice ([1]; group 2: Compound A 100 mg/kg PO BID, study day 25): 24.79
- Mean body weight of nude mice ([1]; group 2: Compound A 100 mg/kg PO BID, study day 28): 24.91
- Mean body weight of nude mice ([1]; group 2: Compound A 100 mg/kg PO BID, study day 35): 24.95
- Mean body weight of nude mice ([1]; group 2: Compound A 100 mg/kg PO BID, study day 37): 25.00

SMILES: CC(C)(C)c1nc(-c2cccc(NS(=O)(=O)c3c(F)cccc3F)c2F)c(-c2ccnc(N)n2)s1 [Compound B, N-{3-[5-(2-Amino-4-pyrimidinyl)-2-(1,1-dimethylethyl)-1,3-thiazol-4-yl]-2-fluorophenyl}-2,6-difluorobenzenesulfonamide]
- Mean body weight of nude mice [1, 4]: 25.71
- Mean body weight of nude mice [1, 5]: 26.14
- Mean body weight of nude mice [1, 6]: 26.13
- Mean body weight of nude mice [1, 7]: 26.29
- Mean body weight of nude mice [1, 8]: 25.69
- Mean body weight of nude mice [1, 9]: 26.44
- Mean body weight of nude mice [1, 10]: 26.00
- Mean body weight of nude mice [1, 11]: 26.45
- Mean body weight of nude mice [1, 12]: 26.55
- Mean body weight of nude mice [1, 13]: 27.11
- Mean body weight of nude mice [1, 14]: 25.49
- Mean body weight of nude mice [1, 15]: 25.38
- Mean body weight of nude mice [1, 16]: 25.15
- Mean body weight of nude mice [1, 17]: 25.35
- Mean body weight of nude mice [1, 18]: 24.46
- Mean body weight of nude mice [1, 19]: 24.84
- Mean body weight of nude mice [1, 20]: 24.67
- Mean body weight of nude mice [1, 21]: 24.87
- Mean body weight of nude mice [1, 22]: 24.79
- Mean body weight of nude mice [1, 23]: 24.83
- Mean body weight of nude mice [1, 24]: 24.41
- Mean body weight of nude mice [1, 25]: 24.65
- Mean A375P F11s tumor volume [2, 4]: 178.5 mm^3
- Percent Inhibition of A375P F11s tumor volume compared to vehicle treated mice [2, 4]: −3.6%
- Mean A375P F11s tumor volume [2, 5]: 164.5 mm^3
- Percent Inhibition of A375P F11s tumor volume compared to vehicle treated mice [2, 5]: 34.3%
- Percent Inhibition of A375P F11s tumor volume compared to vehicle treated mice [2, 6]: 39.0%
- Mean A375P F11s tumor volume [2, 7]: 247.5 mm^3
- Percent Inhibition of A375P F11s tumor volume compared to vehicle treated mice [2, 7]: 36.6%
- Mean A375P F11s tumor volume [2, 8]: 350.4 mm^3
- Percent Inhibition of A375P F11s tumor volume compared to vehicle treated mice [2, 8]: 45.3%
- Mean A375P F11s tumor volume [2, 9]: 469.7 mm^3
- Percent Inhibition of A375P F11s tumor volume compared to vehicle treated mice [2, 9]: 35.4%
- Mean A375P F11s tumor volume [2, 10]: 494.2 mm^3
- Percent Inhibition of A375P F11s tumor volume compared to vehicle treated mice [2, 10]: 47.2%
- Mean A375P F11s tumor volume [2, 11]: 581.5 mm^3
- Percent Inhibition of A375P F11s tumor volume compared to vehicle treated mice [2, 11]: 46.6%
- Mean A375P F11s tumor volume [2, 12]: 682.0 mm^3
- Percent Inhibition of A375P F11s tumor volume compared to vehicle treated mice [2, 12]: 45.6%
- Mean A375P F11s tumor volume [2, 13]: 830.5 mm^3
- Mean A375P F11s tumor volume ([2]; group 3: Compound B 10 mg/kg PO QD, study day 35): 1,105.5 mm^3
- Mean A375P F11s tumor volume [2, 14]: 156.9 mm^3
- Percent Inhibition of A375P F11s tumor volume compared to vehicle treated mice [2, 14]: 8.9%
- Percent Inhibition of A375P F11s tumor volume compared to vehicle treated mice [2, 15]: 42.4%
- Mean A375P F11s tumor volume [2, 16]: 104.1 mm^3
- Percent Inhibition of A375P F11s tumor volume compared to vehicle treated mice [2, 16]: 66.5%
- Percent Inhibition of A375P F11s tumor volume compared to vehicle treated mice [2, 17]: 74.5%
- Mean A375P F11s tumor volume [2, 18]: 94.0 mm^3
- Percent Inhibition of A375P F11s tumor volume compared to vehicle treated mice [2, 18]: 85.3%
- Mean A375P F11s tumor volume [2, 19]: 104.4 mm^3
- Percent Inhibition of A375P F11s tumor volume compared to vehicle treated mice [2, 19]: 85.6%
- Percent Inhibition of A375P F11s tumor volume compared to vehicle treated mice [2, 20]: 87.6%
- Percent Inhibition of A375P F11s tumor volume compared to vehicle treated mice [2, 21]: 87.0%
- Mean A375P F11s tumor volume [2, 22]: 148.7 mm^3
- Percent Inhibition of A375P F11s tumor volume compared to vehicle treated mice [2, 22]: 88.1%
- Mean A375P F11s tumor volume [2, 23]: 166.1 mm^3
- Mean A375P F11s tumor volume [2, 25]: 207.6 mm^3
- Mean A375P F11s tumor volume [3, 6]: 189.5 mm^3
- Mean A375P F11s tumor volume [3, 15]: 144.2 mm^3
- Mean A375P F11s tumor volume [3, 17]: 99.5 mm^3
- Mean A375P F11s tumor volume [3, 20]: 116.4 mm^3
- Mean A375P F11s tumor volume [3, 21]: 142.1 mm^3
- Mean A375P F11s tumor volume [3, 24]: 168.1 mm^3
